Laboratory results: PubChem BioAssay (NCI)
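Test compounds were applied to cells in 96-well plates for 48 hours at 5 doses. TGI denotes the concentration required for complete inhibition of growth.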

Assays:
Assay in all cases: inhibition of tumour cell growth, NCI panel, 48 h
786-0 renal = test system: 786-0 renal
A549 NSCLC = test system: A549 NSCLC
ACHN renal = test system: ACHN renal
CAKI-1 renal = test system: CAKI-1 renal
CCRF-CEM leukemia = test system: CCRF-CEM leukemia
COLO 205 colon = test system: COLO 205 colon
DLD-1 colon = test system: DLD-1 colon
DMS 114 small cell lung = test system: DMS 114 small cell lung
DMS 273 small cell lung = test system: DMS 273 small cell lung
EKVX NSCLC = test system: EKVX NSCLC
HCC-2998 colon = test system: HCC-2998 colon
HCT-116 colon = test system: HCT-116 colon
HCT-15 colon = test system: HCT-15 colon
HL-60(TB) leukemia = test system: HL-60(TB) leukemia
HOP-18 NSCLC = test system: HOP-18 NSCLC
HOP-62 NSCLC = test system: HOP-62 NSCLC
HT29 colon = test system: HT29 colon
IGROV1 ovarian = test system: IGROV1 ovarian
K-562 leukemia = test system: K-562 leukemia
KM12 colon = test system: KM12 colon
KM20L2 colon = test system: KM20L2 colon
LOX IMVI melanoma = test system: LOX IMVI melanoma
LXFL 529 NSCLC = test system: LXFL 529 NSCLC
M14 melanoma = test system: M14 melanoma
M19-MEL melanoma = test system: M19-MEL melanoma
MALME-3M melanoma = test system: MALME-3M melanoma
MOLT-4 leukemia = test system: MOLT-4 leukemia
NCI-H226 lung = test system: NCI-H226 lung
NCI-H23 lung = test system: NCI-H23 lung
NCI-H460 lung = test system: NCI-H460 lung
NCI-H522 lung = test system: NCI-H522 lung
OVCAR-3 ovarian = test system: OVCAR-3 ovarian
OVCAR-4 ovarian = test system: OVCAR-4 ovarian
OVCAR-5 ovarian = test system: OVCAR-5 ovarian
OVCAR-8 ovarian = test system: OVCAR-8 ovarian
RPMI-8226 leukemia = test system: RPMI-8226 leukemia
RXF 393 renal = test system: RXF 393 renal
SF-268 CNS = test system: SF-268 CNS
SF-295 CNS = test system: SF-295 CNS
SF-539 CNS = test system: SF-539 CNS
SK-MEL-2 melanoma = test system: SK-MEL-2 melanoma
SK-MEL-28 melanoma = test system: SK-MEL-28 melanoma
SK-MEL-5 melanoma = test system: SK-MEL-5 melanoma
SK-OV-3 ovarian = test system: SK-OV-3 ovarian
SN12C renal = test system: SN12C renal
SNB-19 CNS = test system: SNB-19 CNS
SNB-75 CNS = test system: SNB-75 CNS
SNB-78 CNS = test system: SNB-78 CNS
SR leukemia = test system: SR leukemia
SW-620 colon = test system: SW-620 colon
TK-10 renal = test system: TK-10 renal
U251 CNS = test system: U251 CNS
UACC-257 melanoma = test system: UACC-257 melanoma
UACC-62 melanoma = test system: UACC-62 melanoma
UO-31 renal = test system: UO-31 renal
XF 498 CNS = test system: XF 498 CNS
A498 renal = test system: A498 renal
HOP-92 NSCLC = test system: HOP-92 NSCLC

Measured: TGI

C[Si](C)(c1ccccc1)C1CC(=O)CC(=O)C1
42.5 µM: LOX IMVI melanoma
37.6 µM: UO-31 renal
34.4 µM: SF-539 CNS
48.3 µM: IGROV1 ovarian
49.9 µM: 786-0 renal
43.3 µM: HL-60(TB) leukemia
60.8 µM: NCI-H522 lung
not listed: A498 renal | HOP-92 NSCLC
> 100 µM: all other assays above

Cc1cc(O)c(C=O)c(C)c1CCC1(C)C=Cc2cc(O)ccc2O1 (configuration not stated)
46.4 µM: DMS 273 small cell lung
56.3 µM: OVCAR-3 ovarian
85.6 µM: SK-OV-3 ovarian
57.9 µM: HOP-92 NSCLC
50.5 µM: MOLT-4 leukemia
86.4 µM: SNB-78 CNS
94.1 µM: SNB-75 CNS
43.9 µM: NCI-H23 lung
35 µM: M14 melanoma
53.7 µM: UACC-257 melanoma
40.3 µM: LOX IMVI melanoma
60.3 µM: HL-60(TB) leukemia
28.2 µM: NCI-H522 lung
38.6 µM: ACHN renal
67 µM: OVCAR-4 ovarian
48.8 µM: CCRF-CEM leukemia | U251 CNS
67.9 µM: K-562 leukemia
43 µM: UACC-62 melanoma
67.6 µM: SF-295 CNS
30.4 µM: COLO 205 colon
37.1 µM: CAKI-1 renal
79.2 µM: HCC-2998 colon
38.9 µM: SF-539 CNS
94.4 µM: EKVX NSCLC
71.2 µM: SK-MEL-5 melanoma
54 µM: SK-MEL-28 melanoma
31.4 µM: OVCAR-8 ovarian
53.9 µM: SK-MEL-2 melanoma
55.1 µM: HCT-15 colon
82.2 µM: HT29 colon
56.1 µM: RPMI-8226 leukemia
45 µM: SW-620 colon
60.5 µM: HOP-18 NSCLC
57.4 µM: KM20L2 colon
52.7 µM: XF 498 CNS
29.8 µM: LXFL 529 NSCLC
71.4 µM: MALME-3M melanoma
30.9 µM: HCT-116 colon
38 µM: DLD-1 colon
43.2 µM: HOP-62 NSCLC
44.7 µM: DMS 114 small cell lung
79.1 µM: OVCAR-5 ovarian
52.5 µM: NCI-H460 lung
not listed: RXF 393 renal | UO-31 renal
> 100 µM: all other assays above

Oc1ccc(-c2nc(=S)[nH][nH]2)cc1
not listed: HCC-2998 colon | LOX IMVI melanoma | RXF 393 renal
> 100 µM: all other assays above
